Test results from patent US10583130B2, “Pharmaceutical formulations compromising nitrocatechol derivatives and methods of making thereof” (BIAL—Portela & Cᵃ, S.A., priority 2009, dated 2020).

What was measured:
[1] = Bulk / apparent density (m/V0); type: physicochemical; settings: prior to granulation and/or formulation
Source text: It is within the ability of one of skill in the art to determine the bulk density of a compound or composition using methods generally accepted in the art. However, suitable methods include, for example, the European Pharmacopeia edition 6, Test 2.9.15 “apparent volume,” pages 285-286, EDQM, 2007, and USP 31, vol. 1 test <616> page 231-232, The United States Pharmacopeia Convention, 2008. An example of a suitable method is described below:
Apparatus: • settling apparatus capable of producing in 1 minute 250±15 taps from a height of 3±0.2 mm. The support for the graduated cylinder with its holder, has a mass of 450±5 g • a 250 ml graduated cylinder (2 ml intervals) with a mass of 220±40 g
Method: Into a dry cylinder, introduce without compacting, 100.0 g (m g) of the test substance. Secure the cylinder in its holder. Read the unsettled apparent volume (V0) to the nearest milliliter. Carry out 10, 500 and 1250 taps and read the corresponding volumes V10, V500, V1250, to the nearest milliliter. If the difference between V500 and V1250 is greater than 2 ml, carry out another 1250 taps.
Alternatively, if it is not possible to select 100.0 g, select a test sample of any mass but with a volume between 50 ml and 250 ml, measure its apparent volume, V0 as described above, and weigh the sample and specify the mass in the expression of results. Bulk/apparent density may then be determined in g/ml using the following formula: m/V0 where m is the mass in grams and V0 the unsettled apparent volume.
(§1) The granules and final compositions were evaluated for bulk and tapped density using the methods described above. Flowability was also accessed by testing the flow rate through an orifice described in USP 31, vol. 1, test <1174>, The United States Pharmacopeia Convention, 2008. The flowability was measured as the mass per time flowing through the 10 mm diameter opening of a glass funnel.

[2] = Flowability: flow rate through 10 mm orifice of a glass funnel (USP <1174>); type: physicochemical; settings: API before granulation
Source text: It is within the ability of one of skill in the art to determine the flowability of a compound or composition using methods generally accepted in the art. However, suitable methods include but are not limited to, testing the flow rate through an orifice described in USP 31, vol. 1, test <1174>, The United States Pharmacopeia Convention, 2008, in which case, the flowability may be measured as the mass per time flowing through the 10 mm diameter opening of a glass funnel.
as §1

| bulk density of the API alone [1] | flow of the API alone [2] | bulk density of the API alone ([1]; listed as 2,5-dichloro-3-(5-(3,4-dihydroxy-5-nitrophenyl)-1,2,4-oxadiazol-3-yl)-4,6-dimeth) | SMILES |
| --- | --- | --- | --- |
| around 0.2 g/ml |  |  | Cc1nc(Cl)c(-c2noc(-c3cc(O)c(O)c([N+](=O)[O-])c3)n2)c(C)c1Cl [5-[3-(2,5-dichloro-4,6-dimethylpyridin-3-yl)-[1,2,4]oxadiazol-5-yl]-3-nitrobenzene-1,2-diol] |
| < 0.1 g/mL | no flow | less than 0.1 g/ml | Cc1c(Cl)c(C)[n+]([O-])c(Cl)c1-c1noc(-c2cc(O)c(O)c([N+](=O)[O-])c2)n1 [API, 2,5-dichloro-3-(5-(3,4-dihydroxy-5-nitrophenyl)-1,2,4-oxadiazol-3-yl)-4,6-dimethylpyridine 1-oxide] |
